Reference: article PMC10500568, “Inhibition of MurA Enzyme from Escherichia coli by Flavonoids and Their Synthetic Analogues” (ACS Omega, 2023)
Where two headings read alike, the source gives them in different places.

Legend:
MurA enzyme from E. coli [1] = biological target: T1, MurA enzyme from E. coli (Escherichia coli, UniProt P0A749); assay: MurA dilution assay; assay type: biochemical; settings: for RA% (residual activity), dilution assay: compound at 10 times IC50, 30 min preincubation, then 100-fold dilution
Description: The enzyme concentration used was the usual concentration in reactivity assays 100-fold (25 μM). After 30 min of preincubation, the mixture was diluted 100-fold, then the previously described reactivity assay was performed using 100 μM PEP.

MurA enzyme from E. coli [2] = biological target: T1, MurA enzyme from E. coli; assay: MurA inhibition assay (malachite green, orthophosphate release); assay type: biochemical; settings: for effect of DTT on inhibition (comparison of RAs): in the presence of DTT; for inhibitory activity on MurA in at least one of the three assays: residual activity at 100 μM, threshold 50% RA, no preincubation, 30 min preincubation, or 30 min + DTT; for remaining activity at 100 µM / time-dependent inhibition: inactive without preincubation, activity after 30 min of preincubation: 100 μM; for time-dependent inhibition: inactive without preincubation, activity after 30 min of preincubation: 0 min vs 30 min preincubation
Description: To determine the inhibition of MurA, the colorimetric assay with malachite green was used to measure the release of orthophosphate generated during the reaction.[30] […] Time-dependent inhibition assays were also performed by preincubating MurA with the 200 μM UNAG substrate and target compounds for 30 min at 37 °C before starting the reaction with the addition of the second substrate 100 μM PEP, resulting in a final mixture volume of 50 μL. The reaction was stopped after a 15 min incubation at 37 °C by adding the Biomol reagent (100 μL, Enzo Life Sciences, New York), and the absorbance was measured after 5 min at 650 nm using a microplate reader (BioTek, Synergy H4). The final concentration of DMSO in the reaction mixture was 5% (v/v), and 1 μM fosfomycin was used as a reference in the MurA assay. The percentage of residual activity was calculated in comparison to the negative controls, which contained only 5% DMSO. IC50 values were determined by measuring residual activities at 7 different concentrations of the compounds and calculated using GraphPad Prism (GraphPad Software, San Diego, California).
The initial screening of flavonoids was performed under three different assay conditions: (1) without preincubation, (2) with a 30 min preincubation, and (3) with the addition of dithiothreitol (DTT) along with a 30 min preincubation. These different conditions were necessary to understand the mechanism of inhibition of each flavonoid. […] To distinguish whether the adduct formed between the inhibitor and the enzyme was covalent or noncovalent, the inhibitory activity was tested in the presence of 0.1 mM DTT.

S. aureus (ATCC 29213) = assay: Antibacterial assay, broth microdilution MIC; assay type: cell-based, Staphylococcus aureus; settings: for MIC: Staphylococcus aureus; for inhibition of S. aureus growth: broth microdilution
Description: (§1) To test antimicrobial properties, a broth microdilution method in 96-well plates was used according to Clinical and Laboratory Standards Institute guidelines[31] and European Committee on Antimicrobial Susceptibility Testing ([…]) recommendations.[32] Bacterial suspensions, equivalent to a 0.5 McFarland turbidity standard, were diluted with cation-adjusted Mueller–Hinton broth with TES buffering (ThermoFisher Scientific) to achieve a final inoculum of 10^5 CFU/mL. Compounds dissolved in 100% DMSO at a concentration of 10 mM were mixed with the inoculum and incubated at 35 °C for 20 h.

E. coli (ATCC 25922) = assay: Antibacterial assay, broth microdilution MIC; assay type: cell-based, Escherichia coli; settings: for MIC: Escherichia coli
Description: as §1

[3] = 30 min preincubation with addition of DTT (0.1 mM), read-out: RA% (residual activity), 30 min + DTT
[4] = 30 min preincubation, read-out: IC50, 30 min
[5] = without preincubation, read-out: IC50, 0 min
[6] = ATCC29213, S. aureus ATCC 29213, 35 °C, 20 h, read-out: MIC S. aureus
[7] = ATCC25922, E. coli ATCC 25922, 35 °C, 20 h, read-out: MIC E. coli
[8] = without preincubation, read-out: RA% (residual activity), 0 min

T1 sequence (P0A749 whole entry): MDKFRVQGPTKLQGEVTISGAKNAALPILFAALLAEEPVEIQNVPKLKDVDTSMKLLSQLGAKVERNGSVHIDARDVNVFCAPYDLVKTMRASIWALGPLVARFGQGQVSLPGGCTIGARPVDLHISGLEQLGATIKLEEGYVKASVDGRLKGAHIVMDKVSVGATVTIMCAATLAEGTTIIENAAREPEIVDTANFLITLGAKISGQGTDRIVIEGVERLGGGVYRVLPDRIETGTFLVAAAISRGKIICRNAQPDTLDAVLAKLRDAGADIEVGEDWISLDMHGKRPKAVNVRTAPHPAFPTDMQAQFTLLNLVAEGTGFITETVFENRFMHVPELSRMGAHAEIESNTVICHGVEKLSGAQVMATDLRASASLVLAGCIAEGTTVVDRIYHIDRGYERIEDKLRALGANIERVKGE

| Structure (SMILES) | RA% (residual activity), dilution assay (MurA enzyme from E. coli [1]) | remaining activity at 100 µM (MurA enzyme from E. coli [2]; [3]) | Hill coefficient, 30 min (MurA enzyme from E. coli [2]; 30 min preincubation) | effect of DTT on inhibition (comparison of RAs) (MurA enzyme from E. coli [2]; 30 min preincubation) | IC50 (MurA enzyme from E. coli [2]; [4]) | inhibitory activity on MurA in at least one of the three assays (MurA enzyme from E. coli [2]) | Hill coefficient, 0 min (MurA enzyme from E. coli [2]; without preincubation) | IC50 (MurA enzyme from E. coli [2]; [5]) | MIC (S. aureus (ATCC 29213); [6]) | MIC (E. coli (ATCC 25922); [7]) | time-dependent inhibition: inactive without preincubation, activity after 30 min of preincubation (MurA enzyme from E. coli [2]) | remaining activity at 100 µM (MurA enzyme from E. coli [2]; [8]) | MIC (S. aureus (ATCC 29213); ATCC29213, 20 h, read-out: MIC S. aureus) | MIC (E. coli (ATCC 25922); ATCC25922, 20 h, read-out: MIC E. coli) | inhibition of S. aureus growth (S. aureus (ATCC 29213)) | inhibitory activity after dilution (MurA enzyme from E. coli [1]; dilution assay) | effect on E. coli growth (E. coli (ATCC 25922); broth microdilution) | Hill coefficient (dose-response curves at 0 and 30 min) (MurA enzyme from E. coli [2]) | MIC (S. aureus (ATCC 29213); ATCC29213, S. aureus ATCC 29213, read-out: MIC S. aureus (positive control)) | MIC (E. coli (ATCC 25922); ATCC25922, E. coli ATCC 25922, read-out: MIC E. coli (positive control)) |
| --- | --- | --- | --- | --- | --- | --- | --- | --- | --- | --- | --- | --- | --- | --- | --- | --- | --- | --- | --- | --- |
| O=c1c(O)c(-c2ccc(O)c(O)c2)oc2cc(O)ccc12 [Compound 2, fisetin] | 98% | 60% | 1.0 | reduced inhibition in the presence of DTT | 8.8 µM | showed inhibitory activity | 1.4 | 91 µM | > 250 µM | > 250 µM | – | – | – | – | – | – | – | – | – | – |
| O=c1c(O)c(-c2cc(O)c(O)c(O)c2)oc2cc(O)cc(O)c12 [Compound 4, myricetin] | 84% | 34% | 1.9 | reduced inhibition in the presence of DTT | – | showed inhibitory activity | 0.8 | – | > 250 µM | > 250 µM | active after 30 min of preincubation | – | – | – | – | – | – | – | – | – |
| COc1cc(O)c2c(=O)c(O)c(-c3ccc(O)c(O)c3)oc2c1 [Compound 8, rhamnetin] | 77% | 58% | 1.1 | reduced inhibition in the presence of DTT | 13 µM | showed inhibitory activity | 1.1 | 96 µM | > 250 µM | > 250 µM | – | – | – | – | – | – | – | – | – | – |
| O=c1c(O)c(-c2ccc(O)c(O)c2)oc2cc(O)cc(O)c12 [Compound 9, quercetin] | 93% | 46% | 1.3 | reduced inhibition in the presence of DTT | 9.3 µM | showed inhibitory activity | 0.8 | 14 µM | > 250 µM | > 250 µM | – | – | – | – | – | – | – | – | – | – |
| C[C@@H]1O[C@@H](Oc2c(-c3ccc(O)c(O)c3)oc3cc(O)cc(O)c3c2=O)[C@H](O)[C@H](O)[C@H]1O [Compound 10, quercitrin] | 88% | 103% | 1.1 | – | 33 µM | showed inhibitory activity | – | – | – | – | active after 30 min of preincubation | 66% | > 250 µM | > 250 µM | – | – | – | – | – | – |
| O=c1cc(-c2ccccc2)oc2c(O)c(O)ccc12 [Compound 25, 7,8-dihydroxyflavone] | 100% | 89% | 1.4 | – | 12.9 µM | showed inhibitory activity | 2 | 88 µM | 125 µM | > 250 µM | – | – | – | – | weak inhibition | – | – | – | – | – |
| O=c1cc(-c2ccccc2)oc2cc(O)c(O)c(O)c12 [Compound 26, baicalein] | 50% | 86% | 1.4 | – | 61 µM | showed inhibitory activity | – | – | 31 µM | > 250 µM | active after 30 min of preincubation | 66% | – | – | weak inhibition | retained some inhibitory activity | had no effect | – | – | – |
| Oc1cc(O)c2c(c1)O[C@H](c1ccc(O)c(O)c1)[C@@H](O)[C@H]2O [Compound 35, leucocyanidin] | – | 13% | 2.9 | reduced inhibition in the presence of DTT | 28.6 µM | showed inhibitory activity | 2.6 | 69 µM | > 250 µM | > 250 µM | – | – | – | – | – | – | – | > 2.5 | – | – |
| O=C1C[C@@H](c2ccccc2)Oc2ccccc21 [Compound 46, flavanone] | – | – | – | – | – | showed inhibitory activity | – | – | – | – | – | – | – | – | – | – | – | – | – | – |
| O=C1c2c(O)cc(O)cc2OC(c2ccc(O)c(O)c2)C1O (stereo not drawn) [Compound 47, taxifolin] | 93% | 105% | 0.5 | – | 4.5 µM | showed inhibitory activity | – | – | > 250 µM | > 250 µM | active after 30 min of preincubation | 98% | – | – | – | – | – | – | – | – |
| COc1cc(O)cc2c1C(=O)C[C@@H](c1ccccc1)O2 [Compound 48, (−)-alpinetin] | 93% | 102% | 1.6 | – | 57 µM | – | – | – | > 250 µM | > 250 µM | active after 30 min of preincubation | 66% | – | – | – | – | – | – | – | – |
| O=C1c2c(O)cc(O)cc2O[C@H](c2cc(O)c(O)c(O)c2)[C@H]1O [Compound 49, ampelopsin] | 100% | 101% | 0.8 | – | 0.48 µM | showed inhibitory activity | 0.8 | 36 µM | 125 µM | > 250 µM | – | – | – | – | weak inhibition | – | – | ~1 | – | – |
| CN(C)[C@@H]1C(O)=C(C(N)=O)C(=O)[C@@]2(O)C(O)=C3C(=O)c4c(O)cccc4[C@@](C)(O)[C@H]3C[C@@H]12 [tetracycline, reference compound] | – | – | – | – | – | – | – | – | – | – | – | – | – | – | – | – | – | – | 0.5 µg/mL | 1 µg/mL |
